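All cell lines were grown in 96-well plates and treated with compound for 48 hours. GI50 = concentration required for 50% inhibition of growth. TGI: total growth inhibition.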
Key:
Experiment in all cases: NCI-60 cell line screen, 48 h
SF-268 CNS = test system: SF-268 CNS
A549 NSCLC = test system: A549 NSCLC
OVCAR-5 ovarian = test system: OVCAR-5 ovarian
OVCAR-3 ovarian = test system: OVCAR-3 ovarian
SK-MEL-5 melanoma = test system: SK-MEL-5 melanoma
SN12C renal = test system: SN12C renal
U251 CNS = test system: U251 CNS
ACHN renal = test system: ACHN renal
MCF7 breast = test system: MCF7 breast
MOLT-4 leukemia = test system: MOLT-4 leukemia
TK-10 renal = test system: TK-10 renal
OVCAR-8 ovarian = test system: OVCAR-8 ovarian
UO-31 renal = test system: UO-31 renal
NCI-H226 lung = test system: NCI-H226 lung
T-47D breast = test system: T-47D breast
PC-3 prostate = test system: PC-3 prostate
SW-620 colon = test system: SW-620 colon
786-0 renal = test system: 786-0 renal
SF-539 CNS = test system: SF-539 CNS
SK-MEL-28 melanoma = test system: SK-MEL-28 melanoma
MDA-MB-231 breast = test system: MDA-MB-231 breast
UACC-62 melanoma = test system: UACC-62 melanoma
K-562 leukemia = test system: K-562 leukemia
HS 578T breast = test system: HS 578T breast
CAKI-1 renal = test system: CAKI-1 renal
RPMI-8226 leukemia = test system: RPMI-8226 leukemia
COLO 205 colon = test system: COLO 205 colon
MDA-MB-435 = test system: MDA-MB-435
SF-295 CNS = test system: SF-295 CNS
KM12 colon = test system: KM12 colon
HT29 colon = test system: HT29 colon
HL-60(TB) leukemia = test system: HL-60(TB) leukemia
UACC-257 melanoma = test system: UACC-257 melanoma
BT-549 breast = test system: BT-549 breast
NCI-H460 lung = test system: NCI-H460 lung
OVCAR-4 ovarian = test system: OVCAR-4 ovarian
SNB-19 CNS = test system: SNB-19 CNS
M14 melanoma = test system: M14 melanoma
NCI-H522 lung = test system: NCI-H522 lung
SK-MEL-2 melanoma = test system: SK-MEL-2 melanoma
HOP-92 NSCLC = test system: HOP-92 NSCLC
NCI-H23 lung = test system: NCI-H23 lung
HOP-62 NSCLC = test system: HOP-62 NSCLC
SR leukemia = test system: SR leukemia
SNB-75 CNS = test system: SNB-75 CNS
MALME-3M melanoma = test system: MALME-3M melanoma
HCT-15 colon = test system: HCT-15 colon
NCI/ADR-RES ovarian = test system: NCI/ADR-RES ovarian
SK-OV-3 ovarian = test system: SK-OV-3 ovarian
DU-145 prostate = test system: DU-145 prostate
LOX IMVI melanoma = test system: LOX IMVI melanoma
RXF 393 renal = test system: RXF 393 renal
HCT-116 colon = test system: HCT-116 colon
CCRF-CEM leukemia = test system: CCRF-CEM leukemia

Which results are given for COC(=O)C1=C(C(=O)OC)SC(=C(Cl)C(=S)Nc2ccccc2O)S1?
GI50 (SF-268 CNS): 10.2 µM; TGI (SF-268 CNS): 23.6 µM; GI50 (A549 NSCLC): 21.2 µM; TGI (A549 NSCLC): > 50 µM; GI50 (OVCAR-5 ovarian): 11.6 µM; TGI (OVCAR-5 ovarian): 31.5 µM; GI50 (OVCAR-3 ovarian): 7.41 µM; TGI (OVCAR-3 ovarian): 22.8 µM; GI50 (SK-MEL-5 melanoma): 19.1 µM; TGI (SK-MEL-5 melanoma): > 50 µM; GI50 (SN12C renal): 9.69 µM; TGI (SN12C renal): 19.7 µM; GI50 (U251 CNS): 12.2 µM; TGI (U251 CNS): 30.5 µM; GI50 (ACHN renal): 16.3 µM; TGI (ACHN renal): > 50 µM; GI50 (MCF7 breast): 8.57 µM; TGI (MCF7 breast): 25.7 µM; GI50 (MOLT-4 leukemia): 46.8 µM; TGI (MOLT-4 leukemia): > 50 µM; GI50 (TK-10 renal): 7.05 µM; TGI (TK-10 renal): 23.9 µM; GI50 (OVCAR-8 ovarian): 25.3 µM; TGI (OVCAR-8 ovarian): > 50 µM; GI50 (UO-31 renal): 14.4 µM; TGI (UO-31 renal): 39.2 µM; GI50 (NCI-H226 lung): 13.9 µM; TGI (NCI-H226 lung): 39.3 µM; GI50 (T-47D breast): 17 µM; TGI (T-47D breast): > 50 µM; GI50 (PC-3 prostate): 22.2 µM; TGI (PC-3 prostate): > 50 µM; GI50 (SW-620 colon): 26.4 µM; TGI (SW-620 colon): > 50 µM; GI50 (786-0 renal): 0.686 µM; TGI (786-0 renal): 10.1 µM; GI50 (SF-539 CNS): 15.9 µM; TGI (SF-539 CNS): 39 µM; GI50 (SK-MEL-28 melanoma): > 50 µM; TGI (SK-MEL-28 melanoma): > 50 µM; GI50 (MDA-MB-231 breast): 10.6 µM; TGI (MDA-MB-231 breast): 25.9 µM; GI50 (UACC-62 melanoma): 8.84 µM; TGI (UACC-62 melanoma): 18.6 µM; GI50 (K-562 leukemia): 22.6 µM; TGI (K-562 leukemia): > 50 µM; GI50 (HS 578T breast): 31.6 µM; TGI (HS 578T breast): > 50 µM; GI50 (CAKI-1 renal): 9.63 µM; TGI (CAKI-1 renal): 21.8 µM; GI50 (RPMI-8226 leukemia): 33 µM; TGI (RPMI-8226 leukemia): > 50 µM; GI50 (COLO 205 colon): 16.2 µM; TGI (COLO 205 colon): > 50 µM; GI50 (MDA-MB-435): 3.82 µM; TGI (MDA-MB-435): 17 µM; GI50 (SF-295 CNS): 6.57 µM; TGI (SF-295 CNS): 24.9 µM; GI50 (KM12 colon): 0.132 µM; TGI (KM12 colon): > 50 µM; GI50 (HT29 colon): 30.2 µM; TGI (HT29 colon): > 50 µM; GI50 (HL-60(TB) leukemia): 16.6 µM; TGI (HL-60(TB) leukemia): > 50 µM; GI50 (UACC-257 melanoma): 12.4 µM; TGI (UACC-257 melanoma): 26.3 µM; GI50 (BT-549 breast): 2.34 µM; TGI (BT-549 breast): 35.5 µM; GI50 (NCI-H460 lung): 11.5 µM; TGI (NCI-H460 lung): > 50 µM; GI50 (OVCAR-4 ovarian): 35.5 µM; TGI (OVCAR-4 ovarian): > 50 µM; GI50 (SNB-19 CNS): 18 µM; TGI (SNB-19 CNS): > 50 µM; GI50 (M14 melanoma): 0.352 µM; TGI (M14 melanoma): 12.7 µM; GI50 (NCI-H522 lung): 10.3 µM; TGI (NCI-H522 lung): 23.3 µM; GI50 (SK-MEL-2 melanoma): 10.3 µM; TGI (SK-MEL-2 melanoma): 22.2 µM; GI50 (HOP-92 NSCLC): 40 µM; TGI (HOP-92 NSCLC): > 50 µM; GI50 (NCI-H23 lung): 6.67 µM; TGI (NCI-H23 lung): 20.1 µM; GI50 (HOP-62 NSCLC): 0.354 µM; TGI (HOP-62 NSCLC): 11.2 µM; GI50 (SR leukemia): 26.1 µM; TGI (SR leukemia): > 50 µM; GI50 (SNB-75 CNS): 33.7 µM; TGI (SNB-75 CNS): > 50 µM; GI50 (MALME-3M melanoma): 21.7 µM; TGI (MALME-3M melanoma): > 50 µM; GI50 (HCT-15 colon): 17.7 µM; TGI (HCT-15 colon): > 50 µM; GI50 (NCI/ADR-RES ovarian): 14.1 µM; TGI (NCI/ADR-RES ovarian): 35.1 µM; GI50 (SK-OV-3 ovarian): 20 µM; TGI (SK-OV-3 ovarian): > 50 µM; GI50 (DU-145 prostate): 15.7 µM; TGI (DU-145 prostate): > 50 µM; GI50 (LOX IMVI melanoma): 12.9 µM; TGI (LOX IMVI melanoma): 24.5 µM; GI50 (RXF 393 renal): 11.7 µM; TGI (RXF 393 renal): 29.5 µM; GI50 (HCT-116 colon): 0.143 µM; TGI (HCT-116 colon): > 50 µM; GI50 (CCRF-CEM leukemia): > 50 µM; TGI (CCRF-CEM leukemia): > 50 µM
